According to the supplement of paper PMC10307832:

Legend:
Assay in all cases: relative viability (nuclei count vs DMSO), 5 days (fraction); higher = more cells survive
Adavosertib + Navitoclax = compound: C=CCn1c(=O)c2cnc(Nc3ccc(N4CCN(C)CC4)cc3)nc2n1-c1cccc(C(C)(C)O)n1 [Adavosertib] + CC1(C)CCC(c2ccc(Cl)cc2)=C(CN2CCN(c3ccc(C(=O)NS(=O)(=O)c4ccc(N[C@H](CCN5CCOCC5)CSc5ccccc5)c(S(=O)(=O)C(F)(F)F)c4)cc3)CC2)C1 [Navitoclax] (partner 0.5 µM)
How it was run: (§1)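 A single step with final 0.05% Triton X-100, 1% formaldehyde and 1 ug/ml Hoechst fixed the cells and stained nuclei 5 days after treatment. Lung cancer cell lines in 1536-well plates had been treated by pin tool the day after seeding with one drug alone or a fixed anchor-drug dose plus five library-drug doses (not always all listed) in √10 steps, and nuclei were counted on 4× images. Relative viability is the ratio of nuclei in treated wells to nuclei in vehicle wells, taken as the median of duplicate plates.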

Adavosertib + Lapatinib = compound: C=CCn1c(=O)c2cnc(Nc3ccc(N4CCN(C)CC4)cc3)nc2n1-c1cccc(C(C)(C)O)n1 [Adavosertib] + CS(=O)(=O)CCNCc1ccc(-c2ccc3ncnc(Nc4ccc(OCc5cccc(F)c5)c(Cl)c4)c3c2)o1 [Lapatinib] (partner 2 µM)
How it was run: as §1

Nelarabine + Luminespib = compound: COc1nc(N)nc2c1ncn2[C@@H]1O[C@H](CO)[C@@H](O)[C@@H]1O [Nelarabine] + CCNC(=O)c1noc(-c2cc(C(C)C)c(O)cc2O)c1-c1ccc(CN2CCOCC2)cc1 [Luminespib] (partner 0.01 µM)
How it was run: as §1

Nelarabine + Dasatinib = compound: COc1nc(N)nc2c1ncn2[C@@H]1O[C@H](CO)[C@@H](O)[C@@H]1O [Nelarabine] + Cc1nc(Nc2ncc(C(=O)Nc3c(C)cccc3Cl)s2)cc(N2CCN(CCO)CC2)n1 [Dasatinib] (partner 0.075 µM)
How it was run: as §1

LC-2-ad
relative viability (Adavosertib + Navitoclax; first compound 0.01 µM): 0.452 | relative viability (Adavosertib + Navitoclax; first compound 0.03162 µM): 0.411 | relative viability (Adavosertib + Navitoclax; first compound 0.1 µM): 0.392 | relative viability (Adavosertib + Navitoclax; first compound 0.3162 µM): 0.216 | relative viability (Adavosertib + Lapatinib; first compound 0.01 µM): 0.964 | relative viability (Adavosertib + Lapatinib; first compound 0.03162 µM): 0.954 | relative viability (Adavosertib + Lapatinib; first compound 0.1 µM): 0.991 | relative viability (Adavosertib + Lapatinib; first compound 0.3162 µM): 0.906 | relative viability (Nelarabine + Luminespib; first compound 0.01 µM): 1.1 | relative viability (Nelarabine + Luminespib; first compound 0.03162 µM): 1.09 | relative viability (Nelarabine + Luminespib; first compound 0.1 µM): 0.932 | relative viability (Nelarabine + Luminespib; first compound 0.3162 µM): 1.08 | relative viability (Nelarabine + Luminespib; first compound 1 µM): 0.916 | relative viability (Nelarabine + Dasatinib; first compound 0.01 µM): 0.556 | relative viability (Nelarabine + Dasatinib; first compound 0.03162 µM): 0.647 | relative viability (Nelarabine + Dasatinib; first compound 0.1 µM): 0.463 | relative viability (Nelarabine + Dasatinib; first compound 0.3162 µM): 0.529 | relative viability (Nelarabine + Dasatinib; first compound 1 µM): 0.611
